Structures are written as SMILES.

This note sets out measurements from US12673081B2, “Traditional CHINESE medicine compound composition with immune bidirectional regulation effect and preparation method and applications thereof” (Chenland Nutritionals Inc., priority 2020, dated 2026).

One test relates to nasal mucosa. The test is described as follows: HE staining of final nasal mucosa of guinea pigs. As to conditions: gavage 28 days, D1 41, D2 45, D3 116, D4 116, D5 58, D6 116, D7 233, D8 16 mg/kg. It counts as in vivo, guinea pig. As to the method: (§1) 1) After scoring on the second day after the last administration, guinea pigs were anesthetized by intraperitoneal injection of 10% chloral hydrate with the anesthetic dosage of 0.35 ml/100 g;
2) After peeling off the nasal skin, the maxilla together with the nasal cavity were removed, and the bilateral nasal cavities were completely separated from the middle incisors;
3) The nasal mucosa was carefully removed and fixed with 4% paraformaldehyde for HE staining;
4) All the HE stained pathological sections were observed under the light microscope.
The mucosal tissues fixed in 4% glutaraldehyde solution were taken out and made into 5 μm thick paraffin sections for HE staining.
1) 60%, 70%, 80% and 90% gradient ethanol of the fixed sample were used to dehydrate for 8 h respectively;
2) 100% ethanol I and II were used to dehydrated for 1 h respectively;
3) The xylene I and II were used to make the specimens transparent for 15 min respectively;
4) The specimens were soaked in liquid paraffin and placed in a 65° C. oven for 2 h;
5) The soaked paraffin specimens were taken out and embedded in paraffin;
6) The paraffin was cut into 5 μm thick sections and subjected to HE staining.
1) Xylene I and II for 15 min respectively;
2) Gradient ethanol hydration to distilled water;
3) Hematoxylin staining for 5 min;
4) Differentiation with 1% hydrochloric acid and ethanol for 1 min; […]

The subject of test [1] is guinea pig model with allergic rhinitis. The test is described as follows: Allergic rhinitis experiment: number and time points of deaths in each group. It counts as in vivo. To be noted: surviving guinea pigs of 10 in group; D1 41, D2 45, D3 116, D4 116, D5 58, D6 116, D7 233, D8 16 mg/kg. An excerpt: 100 guinea pigs were divided into 20 cages with 5 guinea pigs in each cage. After 7 days of adaptive growth without abnormalities, 90 guinea pigs were used for the construction and induction of allergic rhinitis model, and the remaining 10 guinea pigs were used for normal control. During the whole experiment, the animals were looked after and treated in strict accordance with the animal ethics law.
(§2) On the day of modeling, drugs were given by gavage. Each guinea pig was given once a day, and the Placebo group was given equal volume of drug solution every day for 4 weeks, i.e. 28 days.

Test [2] has as its system histamine, IgE, IL-4, IFN-γ, thromboxane B2 and leukotriene. Kind of test: Final plasma cytokines of guinea pigs by ELISA. It counts as in vivo, guinea pig. As to the method: as §1
2) The abdominal cavity was opened, and a 5 ml sterile syringe was inserted into the abdominal vein of the guinea pig, and the venous blood was drawn;
3) The drawn venous blood was put into a heparin tube, mixed well, and left in a chromatography freezer at 4° C. overnight.
4) After centrifugation at 14000 rpm at 4° C. for 15 minutes, the supernatant was taken and stored at −80° C. for use.
1.6 The expression levels of cytokines in guinea pig serum and nasal lavage solution were detected by ELISA. The final serum and nasal lavage solution were taken for the determination of histamine, IgE, IL-4, IFN-γ, thromboxane B2 and leukotriene.
1) taking out the ELISA kit from the refrigerator and balancing it at room temperature for 20 min;
3) after sealing the film with a film sealing plate, placing it in a 37° C. incubator for incubation for 30 min;
4) discarding the liquid in the wells, gently spin drying it, and adding 50 μL biotin labeled antibody working solution to each well, and incubating in a 37° C. incubator for 30 min;
5) carefully removing the sealing film, pouring out the liquid in the wells, gently spin drying it, adding washing liquid into each well, standing at room temperature for 30 seconds and then pouring it out, repeating this operation for 5 times and gently patting it dry;
6) adding 50 μL horseradish peroxidase labeled avidin working solution to each well, and incubating in a 37° C. incubator for 30 min;
7) pouring out the liquid in the wells, gently spin drying it, adding washing liquid into each well, standing at room temperature for 30 seconds and then pouring it out, repeating this operation for 5 times and gently patting it dry; and
8) adding 100 μL color developing solution to each well in turn, and developing color in a 37° C. incubator without light for […];
9) adding […] termination solution to each well to terminate the reaction, then zeroing the blank wells and measure the absorbance (OD value) of each well at 450 nm wavelength, where the determination shall be carried out within 15 min after the termination solution is added.
Background: In an ELISA, binding on a coated surface is turned into a signal by an enzyme label.

Test [3] concerns eosinophils in nasal lavage solution. The test is described as follows: Counting of eosinophils in nasal lavage solution. It counts as in vivo, guinea pig. As to conditions: guinea pigs. Here is the method:
as §1
2) The guinea pig was fixed in a supine and low head position, the normal saline was slowly dropped into one nasal cavity at the rate of 1 ml/min, and the contralateral nasal cavity was continuously pumped with low negative pressure;
3) A small amount of the recovered lavage solution was taken immediately and put into a leukocyte counting plate to count the total number of leukocytes;
4) The remaining lavage solution was added with EDTA ([…]) and centrifuged at 14000 rpm at 4° C. for 15 minutes. And the supernatant was stored at −80° C. for use.

Test [4] has as its system guinea pig model with allergic rhinitis. Kind of test: Allergic rhinitis experiment: symptom observation (nose scratching, sneezing, symptom score) after OVA nasal instillation. Type of test: in vivo. As to conditions: guinea pigs, gavage 28 days, D1 41, D2 45, D3 116, D4 116, D5 58, D6 116, D7 233, D8 16 mg/kg.
Description: as §2

Setting [5] is: final plasma, gavage 28 days, D1 41, D2 45, D3 116, D4 116, D5 58, D6 116, D7 233, D8 16 mg/kg.

Take `CCOC(=O)N1CCC(=C2c3ccc(Cl)cc3CCc3cccnc32)CC1` [D8, Loratadine]: the “pathological analysis of HE stained nasal mucosa” value in the test on nasal mucosa is “the inflammatory reaction in nasal mucosa of guinea pigs was significantly reduced”. Also, in test [1], the Final number is reported as 8, the “Number after enhanced sensitization” value is on record as 8 and the “Number after nasal instillation” value was 8. In test [2] (setting [5]), this compound yielded a Histamine of 23.78 ± 3.86 ng/mL, an IFN-γ of 113.74 ± 12.59 pg/mL, an IL-4 of 138.64 ± 39.91 pg/mL and an IgE of 41.86 ± 7.34 ng/mL. In test [2] (setting [5]), this compound registered an LTB4 of 32.00 ± 6.71 ng/mL and a TXB2 of 24.86 ± 4.5 ng/mL. The “contents of TXB2 and TLB4 in nasal lavage solution versus model control group” value in test [2] (p<0.05) was “significant difference compared with the model control group”. Besides, the “serum IgE content versus model group” value in test [2] (significantly different from model group (p<0.05)) was “reduce the serum IgE content”. Moreover, the “number of eosinophils in nasal lavage solution decreased compared with the model group” value in test [3] (D1 41, D2 45, D3 116, D4 116, D5 58, D6 116, D7 233, D8 16 mg/kg) is listed as 52.2%. In addition, in test [3] (D8 16 mg/kg, p<0.01), the “number of eosinophils in nasal lavage solution compared with the model group” value is given as “decreased significantly”. This compound registered a Number of eosinophils in test [3] (nasal lavage solution, gavage 28 days, D1 41, D2 45, D3 116, D4 116, D5 58, D6 116, D7 233, D8 16 mg/kg) of 3.50 ± 1.12 PCs./ml. Moreover, in test [4], the “nose scratching times decreased compared with the model group” value stood at 57.0% and the “sneeze times decreased compared with the model group” value is given as 54.4%. In test [4] (score 1-3 per Table 2), the “Final scoring of symptom observation” value is recorded as 1.50 ± 0.50.
